Laboratory results as given in patent publication US20260306460A1, “COMPOSITION FOR REMOVING AND INHIBITING SENESCENT CELLS, AND USES THEREOF” (LIFECEUTIX CO., LTD., priority 2023, published 2026).

Key:
[1] = tested on: senescent A549 cells; assay: Viability of senescent A549 cancer cells (CellTiter-Glo), Example 12; type: cell-based, human; settings: Homo sapiens, A549, 0 μM = 100, read-out: Survival
[2] = tested on: senescent human cells; assay: Viability of doxorubicin-induced senescent human cells (CellTiter-Glo), Example 11; type: cell-based; settings: Homo sapiens, 0 μM = 100, read-out: Survival; for viability at […]: 3.3 μM
[3] = tested on: bleomycin-induced pulmonary fibrosis mice; assay: Bleomycin-induced pulmonary fibrosis mice, Example 31, Table 56; type: in vivo, mouse; settings: untreated = 100%
In short: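 Mice with bleomycin-induced pulmonary fibrosis, untreated or given test compound, with vehicle-only controls. Lung tissue collected for RNA extraction and qRT-PCR analysis.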

[4] = tested on: carbon tetrachloride-induced liver fibrosis mice; assay: Carbon tetrachloride-induced liver fibrosis mice, Example 31, Table 57; type: in vivo, mouse; settings: CCl4-induced liver fibrosis mice, untreated = 100%
In short: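 Mice with induced hepatic fibrosis received either the test compound or, as controls, an equal volume of vehicle solution alone. Once dosing ended, liver tissue was harvested and total RNA was isolated. cDNA was synthesized from this RNA, and quantitative RT-PCR was run on it to measure hepatic mRNA levels of the fibrosis- and senescence-related genes.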

[5] = tested on: HMGN1 secreted from senescent A549 cells; assay: HMGN1 secretion (ELISA) from senescent A549 cancer cells, Example 12; type: cell-based, human; settings: senescent untreated = 100%; 30 μM; 90 μM for LX-305, 905, 1302, 1601, 1603, 2003, 2702, 2901, 3106; 270 μM for LX-1103, 2005, 2007;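 note: A549 cells made senescent by doxorubicin exposure, with DMSO-treated cells serving as the non-senescent control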
[6] = tested on: senescent foreskin cells; assay: Survival of senescent human cells treated with supernatant (secreted fluid) from death-induced cells, Example 13; type: cell-based; settings: Table 8; supernatant from dying senescent cells treated at 30, 90 or 270 μM (as Example 11); senescent treated cells
[7] = tested on: naturally aged mice; assay: Anti-aging evaluation in naturally aged mice, Example 31, Table 55; type: in vivo, mouse; settings: for Femur Ctsk mRNA / Kidney Agtr1a mRNA / Liver IL6 mRNA / Liver MMP3 mRNA / Liver p16 mRNA / Open Field Test Time in Center: untreated = 100%; for Heart Sur2a mRNA / Joint Col2a1 mRNA / Skin Col1a1 mRNA / Skin SDF1 mRNA: untreated = 1.0; for Muscle Mass: untreated 0.64 g; for Fat Mass: untreated 0.82 g; for Cataract incidence: untreated 83%;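 for all read-outs here: Vehicle-dosed control mice received solution alone at matching volume, values compare test-compound-treated aged mice against that control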
[8] = tested on: senescent cells; assay: Viability of senescent cells (CellTiter-Glo), Example 17, Table 13; settings: for Survival (%): doxorubicin-induced senescent cells, 0 μM = 100
[9] = tested on: naturally aged C57BL6J mice; assay: Geriatric depression and anxiety in aged mice, Example 21-8; type: in vivo, mouse; settings: aged mice
Source text: The amount of senescent-associated secretory factor (SASP) in serum and tissues collected from mice of Examples 21-5 and 21-6 was reduced by treatment with LX-5701, LX-2101, or LX-2102. It was confirmed that removing senescent cells, which increase with aging in mice, and effectively reducing the amount of senescent-associated secretory factor (SASP) can improve symptoms of geriatric depression and anxiety.

[10] = tested on: obesity-induced aged C57BL6J mice; assay: Anxiety, depression, lethargy (open field test) in obesity-aged mice, Example 23-4, Table 44; type: in vivo, mouse; settings: obesity-aged mice
Procedure: 15-week-old male C57BL6J mice (The Jackson Laboratory) were induced to obesity by a high-fat diet using the same method as in Example 9-1 WO2023-085787 A1. After acclimation to the experimental environment for one week, the mice were randomly assigned to experimental and control groups. […] LX-3002 was mixed in distilled water with 4% DMSO, 30% PEG300, and 5% Tween80 and administered orally at a concentration of 10 mg/kg daily for 21 days. LX-5701 was mixed in PBS and administered orally at a concentration of 360 mg/kg daily for 21 days. LX-6807 was mixed in saline and administered intraperitoneally at a concentration of 1 mg/kg daily for 21 days. The control group received only the solution in the same volume. After the end of drug administration, the methods described in each example below were performed.
It was determined that anxiety and depression caused by obesity are not causally related to increased body weight, but rather are caused by the accumulation of senescent cells. Accordingly, an activity assessment (open field test) was performed using the same method as in Example 7-7 of WO2023-085787 A1 to analyze lethargy caused by anxiety and depression caused by obesity in mice. The table below quantitatively represents activity, a criterion for assessing lethargy due to anxiety and depression, under conditions in which aging was induced by obesity and the test compound was not administered or was administered. The activity assessment after obesity-induced aging was calculated as 100% and compared with the activity assessment after test compound treatment.

[11] = tested on: senescent A549 cells; assay: Viability of senescent A549 cells (CellTiter-Glo), Example 18, Table 15; settings: for Survival (%): doxorubicin-induced senescent A549 cells, 0 μM = 100%
[12] = tested on: HMGN1 secreted from senescent A549 cells; assay: HMGN1 secretion (ELISA) from senescent A549 cells, Example 18, Table 14; type: cell-based, human; settings: doxorubicin-senescent A549, without test compound (DMSO) = 100%; 30 μM (LX-5211, LX-5433, LX-6530, LX-6800, LX-9105, LX-9118, LX-9131, LX-9136, LX-9302, LX-9321, LX-9565, LX-9602 at 90 μM; LX-9336 at 2.4 mM)
[13] = Homo sapiens, read-out: Survival (%)
[14] = Homo sapiens, A549, read-out: Survival (%)

Molecule: Cc1nnc(-c2cc(C(=O)N3CCC(c4ccc(C#N)cc4)CC3)c(C)cc2C2CCC2)[nH]1 [LX-305]
- viability at 1.1 µM ([1]; 1.1 μM): 99.2%
- viability at […] ([1]; 3.3 μM): 93.8%
- viability at 10 µM ([1]; 10 μM): 63.1%
- viability at 30 µM ([1]; 30 μM): 41%
- viability at 90 µM ([1]; 90 μM): 13.3%
- viability at 1.1 µM ([2]; 1.1 μM): 101%
- viability at […] [2]: 97.2%
- viability at 10 µM ([2]; 10 μM): 91%
- viability at 30 µM ([2]; 30 μM): 78%
- viability at 90 µM ([2]; 90 μM): 23.2%
- Lung p16 mRNA [3]: 62 (±3.5) %
- Col1a1 mRNA [3]: 73 (±4.1) %
- Liver p16 mRNA [4]: 64 (±2.3) %
- Col1a1 mRNA [4]: 70 (±3.2) %
- HMGN1 [5]: 227%
- Survival [6]: 89.5
- Femur Ctsk mRNA [7]: 73%
- Heart Sur2a mRNA [7]: 1.8 fold
- Joint Col2a1 mRNA [7]: 2.6 fold
- Kidney Agtr1a mRNA [7]: 73%
- Liver IL6 mRNA [7]: 61%
- Liver MMP3 mRNA [7]: 78%
- Liver p16 mRNA [7]: 69%
- Open Field Test Time in Center [7]: 157%
- Skin Col1a1 mRNA [7]: 1.7 Fold
- Skin SDF1 mRNA [7]: 1.9 fold
- Muscle Mass [7]: 0.66 g
- Fat Mass [7]: 0.91 g
- Cataract incidence [7]: 75%

Molecule: CCN(CC)C(=S)SSC(=S)N(CC)CC [LX-1601, Disulfiram]
- viability at […] [2]: 90%
- Lung p16 mRNA [3]: 52 (±3.7) %
- Col1a1 mRNA [3]: 63 (±4.6) %
- Liver p16 mRNA [4]: 48 (±4.0) %
- Col1a1 mRNA [4]: 50 (±2.0) %
- HMGN1 [5]: 257%
- Survival [6]: 81.4
- Femur Ctsk mRNA [7]: 40%
- Heart Sur2a mRNA [7]: 2.6 fold
- Joint Col2a1 mRNA [7]: 2.0 fold
- Kidney Agtr1a mRNA [7]: 66%
- Liver IL6 mRNA [7]: 43%
- Liver MMP3 mRNA [7]: 39%
- Liver p16 mRNA [7]: 62%
- Open Field Test Time in Center [7]: 228%
- Skin Col1a1 mRNA [7]: 1.8 Fold
- Skin SDF1 mRNA [7]: 2.1 fold
- Muscle Mass [7]: 0.74 g
- Fat Mass [7]: 1.20 g
- Cataract incidence [7]: 62%

Molecule: CC(=O)N[C@@H](Cc1c[nH]c2ccccc12)C(=O)N[C@@H](CCC(=O)C=[N+]=[N-])C(=O)OC(C)C [LX-3201, Sirpiglenastat]
- Lung p16 mRNA [3]: 77 (±5.9) %
- Col1a1 mRNA [3]: 73 (±3.8) %
- Liver p16 mRNA [4]: 71 (±9.4) %
- Col1a1 mRNA [4]: 82 (±8.2) %
- HMGN1 [5]: 309%
- Survival [6]: 55.2
- Femur Ctsk mRNA [7]: 80%
- Heart Sur2a mRNA [7]: 2.1 fold
- Joint Col2a1 mRNA [7]: 1.7 fold
- Kidney Agtr1a mRNA [7]: 78%
- Liver IL6 mRNA [7]: 71%
- Liver MMP3 mRNA [7]: 64%
- Liver p16 mRNA [7]: 80%
- Open Field Test Time in Center [7]: 171%
- Skin Col1a1 mRNA [7]: 1.6 Fold
- Skin SDF1 mRNA [7]: 2.0 fold
- Muscle Mass [7]: 0.71 g
- Fat Mass [7]: 1.06 g
- Cataract incidence [7]: 76%

Molecule: Cc1[nH]nc(C(F)(F)F)c1Cc1sc2c(c1C(=O)N1C[C@](C)(O)CO1)c(=O)n(C)c(=O)n2C(C)C [LX-3203]
- Lung p16 mRNA [3]: 69 (±5.0) %
- Col1a1 mRNA [3]: 64 (±4.5) %
- Liver p16 mRNA [4]: 64 (±4.0) %
- Col1a1 mRNA [4]: 66 (±4.5) %
- HMGN1 [5]: 293%
- Survival [6]: 57.1
- Femur Ctsk mRNA [7]: 55%
- Heart Sur2a mRNA [7]: 1.8 fold
- Joint Col2a1 mRNA [7]: 1.6 fold
- Kidney Agtr1a mRNA [7]: 68%
- Liver IL6 mRNA [7]: 67%
- Liver MMP3 mRNA [7]: 62%
- Liver p16 mRNA [7]: 66%
- Open Field Test Time in Center [7]: 183%
- Skin Col1a1 mRNA [7]: 1.8 Fold
- Skin SDF1 mRNA [7]: 2.2 fold
- Muscle Mass [7]: 0.68 g
- Fat Mass [7]: 0.85 g
- Cataract incidence [7]: 75%

Molecule: CCc1nc(C(N)=O)c(Nc2ccc(N3CCC(N4CCN(C)CC4)CC3)c(OC)c2)nc1NC1CCOCC1 [LX-3303, Gilteritinib]
- Lung p16 mRNA [3]: 68 (±6.9) %
- Col1a1 mRNA [3]: 78 (±5.1) %
- Liver p16 mRNA [4]: 62 (±4.9) %
- Col1a1 mRNA [4]: 65 (±6.2) %
- HMGN1 [5]: 239%
- Survival [6]: 53.5
- Femur Ctsk mRNA [7]: 76%
- Heart Sur2a mRNA [7]: 1.9 fold
- Joint Col2a1 mRNA [7]: 2.1 fold
- Kidney Agtr1a mRNA [7]: 69%
- Liver IL6 mRNA [7]: 83%
- Liver MMP3 mRNA [7]: 73%
- Liver p16 mRNA [7]: 63%
- Open Field Test Time in Center [7]: 186%
- Skin Col1a1 mRNA [7]: 1.2 Fold
- Skin SDF1 mRNA [7]: 1.7 fold
- Muscle Mass [7]: 0.72 g
- Fat Mass [7]: 1.08 g
- Cataract incidence [7]: 61%

Molecule: Cc1nc(C(=O)NCC(=O)O)c(O)c2ccc(Oc3ccccc3)cc12 [LX-6806, Roxadustat]
- viability at 1.1 µM [8, 13]: 95.4%
- viability at 10 µM [8, 13]: 61.2%
- viability at 30 µM [8, 13]: 32.8%
- amount of SASP, p16, SA-β-gal, lipofuscin [9]: reduced
- symptoms of geriatric depression and anxiety [9]: improved
- geriatric depression [10]: similarly improving geriatric depression
- viability at 1.1 µM [11, 14]: 106%
- viability at 10 µM [11, 14]: 67.2%
- viability at 30 µM [11, 14]: 23.5%

Molecule: Alirocumab [LX-9562]
- Survival (%) ([8]; 1.1 μM): 97.0%
- Survival (%) ([8]; 10 μM): 45.4%
- Survival (%) ([8]; 30 μM): 14.0%
- Survival (%) ([8]; […]): 97.3%
- HMGN1 [12]: 269%
- Survival (%) ([11]; 1.1 μM): 94.1%
- Survival (%) ([11]; 10 μM): 51.8%
- Survival (%) ([11]; 30 μM): 2.1%
- Survival (%) ([11]; […]): 89.1%

Molecule: Dazdotuftide [LX-9601]
- Survival (%) ([8]; 1.1 μM): 96.9%
- Survival (%) ([8]; 10 μM): 78.8%
- Survival (%) ([8]; 30 μM): 30.2%
- Survival (%) ([8]; […]): 89.8%
- HMGN1 [12]: 209%
- Survival (%) ([11]; 1.1 μM): 92.2%
- Survival (%) ([11]; 10 μM): 69.1%
- Survival (%) ([11]; 30 μM): 15.0%
- Survival (%) ([11]; […]): 89.0%

B1: Evolocumab (antibody, chains of the INN, looked up, V domains shown)
VH: EVQLVQSGAEVKKPGASVKVSCKASGYTLTSYGISWVRQAPGQGLEWMGWVSFYNGNTNYAQKLQGRGTMTTDPSTSTAYMELRSLRSDDTAVYYCARGYGMDVWGQGTTVTVSS
VL: ESALTQPASVSGSPGQSITISCTGTSSDVGGYNSVSWYQQHPGKAPKLMIYEVSNRPSGVSNRFSGSKSGNTASLTISGLQAEDEADYYCNSYTSTSMVFGGGTKLTVL
notes: CAS 1256937-27-5
- Survival (%) ([8]; 1.1 μM): 93.9%
- Survival (%) ([8]; 10 μM): 58.2%
- Survival (%) ([8]; 30 μM): 18.5%
- Survival (%) ([8]; […]): 87.6%
- HMGN1 [12]: 291%
- Survival (%) ([11]; 1.1 μM): 97.5%
- Survival (%) ([11]; 10 μM): 43.2%
- Survival (%) ([11]; 30 μM): 5.3%
